Columns and labels:
[1] = tested on: isolated gastric fundic gland; assay: CAP: Acid Secretion Inhibition Test In Vitro ([14C]-aminopyrine uptake); format: cell-based, rabbit (male Japanese White); conditions: Oryctolagus cuniculus, 40 min; 10^-5 M compound, 10^-5 M histamine, rabbit isolated gastric fundic gland, 37° C., 40 minutes; read-out: CAP: acid secretion inhibitory rate
Experimental: With respect to the gastric juice volume (VOL) and the total acid output (TAO), the effects obtained when 100 mg/kg of the sample compound had been administered were expressed as their respective inhibitory rates (%) as follows: [formula] CAP: Acid Secretion Inhibition Test In Vitro i) Meaning
The acid secretion inhibitory activity in a cell level is studied. It can also be used for studying the mechanism of the effect.
ii-a) Preparation of isolated gastric fundus gland suspension
First, an isolated gastric fundic gland sample was prepared. […] Immediately thereafter, the stomach was removed and, after its pyloric and cardiac antrum were severed, incised along its greater curvature into two sheets. The gastric contents adhering to the mucosal surface was washed out with ice-cooled PBS (-) and then carefully washed therein. The gastric wall was spread on a cork board with its mucosal surface facing up and the feed and mucus thereon were completely removed with sterile gauze. The mucosa was separated therefrom by a spatula and then collected in ice-cooled PBS (-). After being washed twice with PBS (-), the mucosa was minced into 2-3 mm^3 pieces by scissors. These pieces were further washed twice with a nutrient solution. The nutrient solution comprises 132.4 mM of NaCl, 5.4 mM of KCl, 5 mM of Na2 HPO4.12H2 O, 1 mM of NaH2 PO4.2H2 O, 1.2 mM of MgSO4, 1 mM of CaCl2, 25 mM of HEPES, 2 mg/ml of glucose, and 1 mg/ml of BSA. Into 70 ml of the nutrient solution containing 1 mg/ml of collagenase, minced mucosal pieces were dispersed and intensely stirred in a conical flask with a stirrer at 37° C. for 40 to 60 minutes. During this period, 100% O2 was sprayed on the nutrient solution surface and the pH was appropriately measured such that it was immediately adjusted to pH 7.4, when the value was therebelow, with a base. The nutrient solution was added to the reaction solution so as to attain the total amount of about 200 ml. After being filtered through a mesh, the suspension was divisionally introduced into 50 ml centrifuge tubes and left for 15 minutes such that gastric fundic gland was deposited. The supernatant was repeatedly removed by an aspirator, dispersed in the nutrient solution, and then left such that the gastric fundic gland was washed three times. At this time, without using a pipette, the suspension was alternately introduced into two centrifuge tubes so as to effect dispersion. The number of cells was counted under microscope and adjusted to 1.6×10^6 cells/ml.
ii-b) [^14 C]-aminopyrine uptake test
Then, [^14 C]-aminopyrine uptake test was performed. After an Eppendorf tube was weighed, 10 μl (final concentration: 10^-5 M) of histamine dissolved in the above-mentioned nutrient solution, 10 μl (final concentration: 10^-5 M) of the test compound dissolved in DMSO, and 10 μl (final concentration: 0.05 μCi/ml) of [^14 C]-aminopyrine diluted with the nutrient solution were introduced therein and then 970 μl of the isolated gastric fundic gland suspension prepared above was added thereto. Subsequently, this mixture was shaken at 37° C. for 40 minutes at 125 cycles/minute. After being centrifuged for 30 minutes, 200 μl of its supernatant was collected into a mini-vial, while the rest was removed by an aspirator. The gland pellet was completely dried as the tube with its lid being opened was kept for one night in a drying oven at 80° C. and then the lid was closed and the weight was determined at room temperature. Then 100 μl of 1N KOH was added thereto and the tube with its lid being closed was treated at 60° C. for 1 to 2 hours so as to dissolve the pellet. Then, the contents thereof were transferred to a mini-vial. Into the mini-vial containing the supernatant or gland pellet, 4 ml of Atomlite™ was added and then the radioactivity was measured by a liquid scintillation counter. […]

stress ulcer = assay: WIS: Restraint and Water Immersion Stress-Induced Ulcer Inhibition Test; format: in vivo, rat (male Crj:SD or Slc:SD); conditions: for WIS: ulcer formation inhibitory rate: 100 mg/kg oral, rats, water immersion stress 7 hours; for effect (anti-ulcer tests): comparison of examples within compound group 1-1
Experimental: WIS: Restraint and Water Immersion Stress-Induced Ulcer Inhibition Test
The degree of inhibition of the stress ulcer formation is tested.
Male Crj:SD or Slc:SD rats (6 to 7-week-old) were fasted overnight, but allowed free access to water. Each group has 5 to 8 of these rats. The sample compound was dissolved or suspended in an aqueous solution of 0.3% sodium carboxymethylcellulose or 0.05% Tween 80 and then was orally administered (100 mg/10 ml/kg). To a control group, the vehicle was administered. 10 minutes later, the rats were placed in a stress cage and immersed to the level of xipfoid process in a water bath (21° C.) for 7 hours. At the end of the stress, the rats were sacrificed by inhalation of ether or carbon dioxide. Then, the stomach of each was removed, inflated by injecting 10 ml of 5% formalin neutral buffer solution, and immersed in 1% formalin neutral buffer solution for 30 minutes or more to be fixed. The stomach was incised along the greater curvature and then the length of each erosion in the glandular portion was determined under dissecting microscope. The sum of the length of erosions per stomach was defined as ulcer index (UI).
The effect obtained when 100 mg/kg of the sample compound had been administered was expressed as ulcer formation inhibitory rate (%) as follows: [formula] VOL, TAO: Acid Secretion Inhibition Test In Vivo i) Meaning

in vitro = conditions: rabbit, gastric mucosal cells
Male Slc:ICR mice = tested on: Male Slc:ICR mice; parameters: species or system mouse (male Slc:ICR); conditions: mouse, in vivo
Experimental: AT: Single Dose Toxicity Pretest
Male Slc:ICR mice (5-week-old) were used. Each group has 3 to 5 mice and each mouse was fasted, but allowed free access to water, for 4 to 5 hours from 9 a.m. in the test day. Then, 2,000 mg/10 ml/kg of the sample compound dissolved or suspended in an aqueous solution of 0.5% sodium carboxymethyl cellulose was orally administered thereto. To a control, only the vehicle was administered. […] The body weight was measured before and after the fasting as well as at the same time everyday. The dead animals were immediately subjected to autopsy and their organs were observed microscopically. Also, the living animals were sacrificed with ether or carbon dioxide one week after the administration and then their organs were observed microscopically.
The toxicity at the single dose of 2,000 mg/kg of the sample compound was expressed as being classified into 5 levels.
5: Mortality rate is 0%; no toxicity is found at all both in behavior and organs.
4: Mortality rate is 0%; while no toxicity is found in organs, slight toxicity is observed in behavior and body weight increase.
3: While there is a dead animal (though not all the animals are dead), no toxicity is found in organs.
2: Regardless of whether there is a dead animal or not, toxicity is found in organs.
1: All the animals are dead.

SMILES | inhibition at 10 µM [1] | WIS: ulcer formation inhibitory rate (stress ulcer) | cytotoxicity at 4 h, 100 µM (in vitro) | further results
CC(C)=CCC/C(C)=C/CSc1ccccc1C(=O)NCCN1CCOCC1 [Example 33] | 100% | 49% | 5% | –
CC(C)=CCC/C(C)=C/COc1ccc(C(=O)NCCN2CCCC(C)(C)C2)cc1 [Example 9] | – | 67% | – | effect (anti-ulcer tests) (stress ulcer; result in words): a sufficient effect can be obtained
CCN1CCN(CCNC(=O)c2ccc(OC/C=C(\C)CCC=C(C)C)cc2)CC1 [Example 45] | 99% | 36% | 30% | –
COc1ccc(N2CCN(CCNC(=O)c3ccc(OC/C=C(\C)CCC=C(C)C)cc3)CC2)cc1 [Example 53] | 98.7% | – | 7% | –
CC(C)=CCC/C(C)=C\COc1ccc(C(=O)NCCN2CCCCC2)cc1 [Example 2] | – | 79% | – | AT: toxicity at single dose, 5 levels (Male Slc:ICR mice): 3
CC(C)=CCC/C(C)=C/COc1ccc(C(=O)NCCN2CCN(CC(C)(C)C)CC2)cc1 [Example 48] | 100% | – | – | –
CC(C)=CCOc1ccc(C(=O)NCCN2CCCCC2)cc1 [Example 1] | – | 67% | 1% | –
CCCCN1CCN(CCNC(=O)c2ccc(OC/C=C(\C)CCC=C(C)C)cc2)CC1 [Example 50] | 95.9% | – | – | –
CC(C)=CCC/C(C)=C/COc1ccc(C(=O)NCCN2CCN(Cc3ccc(F)cc3)CC2)cc1 [Example 57] | 99.4% | – | – | –
CC(C)=CCC/C(C)=C/COc1ccc(C(=O)NCCN2CCN(Cc3ccc4c(c3)OCO4)CC2)cc1 [Example 58] | 100% | 48% | – | –
CC(C)=CCOc1cc(C(=O)NCCN2CCCCC2)cc(OCC=C(C)C)c1OCC=C(C)C [Example 19] | – | 57% | – | AT: toxicity at single dose, 5 levels (Male Slc:ICR mice): 4
CC(C)=CCC/C(C)=C/COc1ccc(C(=O)NCCN2CCCCC2)c(OC/C=C(\C)CCC=C(C)C)c1 [Example 12] | – | 75% | 38% | –
CC(C)=CCC/C(C)=C/CSc1ccccc1C(=O)NCCN1CCCCC1 [Example 7] | – | 87% | – | effect (anti-ulcer tests) (stress ulcer; result in words): the effect has been maintained
CC(C)=CCOc1cc(OCC=C(C)C)cc(C(=O)NCCN2CCCCC2)c1 [Example 18] | – | 40% | 33% | –
CC(C)=CCC/C(C)=C/COc1cc(OC/C=C(\C)CCC=C(C)C)cc(C(=O)NCCN2CCOCC2)c1 [Example 38] | – | 55% | -12% | –
CC(C)=CCC/C(C)=C/COc1ccc(C(=O)NCCN2CCN(c3ncccn3)CC2)cc1 [Example 61] | 100% | – | 3% | –
COc1cc(C(=O)NCCN2CCCCC2)cc(OC)c1OC/C=C(\C)CCC=C(C)C [Example 26] | – | 72% | 17% | anti-ulcer effect (stress ulcer; result in words): more anti-ulcer effect
CC(C)=CCC/C(C)=C/COc1ccc(C(=O)NCCN2CCOCC2)c(OC/C=C(\C)CCC=C(C)C)c1 [Example 37] | – | 71% | – | –

SMILES | inhibition at 10 µM [1] | WIS: ulcer formation inhibitory rate (stress ulcer) | cytotoxicity at 4 h, 100 µM (in vitro) | further results
CC(C)=CCC/C(C)=C/COc1ccc(C(=O)NCCN2CCOCC2)cc1OC/C=C(\C)CCC=C(C)C [Example 36] | – | 39% | – | –
CC(C)=CCC/C(C)=C/COc1ccc(C(=O)NCCN2CCN(c3nccs3)CC2)cc1 [Example 60] | 100% | – | 7% | –
CCCCC(CC)CN1CCN(CCNC(=O)c2ccc(OC/C=C(\C)CCC=C(C)C)cc2)CC1 (centres unmarked) [Example 51] | 94.8% | – | – | –
COc1cccc(C(=O)NCCN2CCCCC2)c1OC/C=C(\C)CCC=C(C)C [Example 21] | – | 68% | 12% | –
CC(C)=CCOc1ccc(C(=O)NCCN2CCCCC2)cc1OCC=C(C)C [Example 15] | – | 89% | 17% | –
CC(C)=CCC/C(C)=C/COc1ccc(C(=O)NCCN2CCN(CCC(C)C)CC2)cc1 [Example 47] | 101% | – | – | –
COc1cc(C(=O)NCCN2CCOCC2)cc(OC)c1OCC=C(C)C [Example 41] | – | 39% | – | –
CC(C)=CCC/C(C)=C/COc1ccc(C(=O)NCCN2CCN(CC(=O)NC(C)C)CC2)cc1 [Example 54] | 100% | – | – | –
CC(C)=CCC/C(C)=C/COc1ccccc1C(=O)NCCN1CCCCC1 [Example 5] | – | 78% | 21% | –
CC(C)=CCC/C(C)=C/COc1ccc(C(=O)NCCN2CCN(c3ccccc3)CC2)cc1 [Example 52] | 99.1% | – | 11% | –
CCN(CCN1CCCCC1)C(=O)c1ccc(OC/C=C(\C)CCC=C(C)C)cc1 [Example 8] | 100% | 67% | 41% | effect (anti-ulcer tests) (stress ulcer; result in words): a sufficient effect can be obtained
CC(C)=CCC/C(C)=C/COc1ccc(C(=O)NCCN2CCN(Cc3ccccc3)CC2)cc1 [Example 56] | 99.4% | – | – | –
CCC(CC)CN1CCN(CCNC(=O)c2ccc(OC/C=C(\C)CCC=C(C)C)cc2)CC1 [Example 49] | 99.8% | – | – | –
COc1ccc(C(=O)NCCN2CCCCC2)c(OC/C=C(\C)CCC=C(C)C)c1 [Example 22] | – | 39% | 44% | –
CC(C)=CCC/C(C)=C/COc1ccccc1C(=O)NCCN1CCOCC1 [Example 30] | – | 68% | – | –
COc1ccc(OC/C=C(\C)CCC=C(C)C)c(C(=O)NCCN2CCOCC2)c1 [Example 40] | – | 70% | – | –
CC(C)=CCOc1ccc(C(=O)NCCN2CCCCC2)c(OCC=C(C)C)c1 [Example 16] | – | 59% | 18% | –

From patent US5814634A, “Alkylenediamine derivative anti-ulcer drug and antibacterial drug” (Shiseido Co. Ltd., priority 1996, dated 1998)
